Source: ChEMBL document CHEMBL1764984 (J Med Chem, 2011)
Values after ≈ are worked out from the molar mass of the structure shown.

How the values were obtained:
[1] = biological target: Mitogen-activated protein kinase 11 (Homo sapiens, UniProt Q15759); assay: Inhibition of P38beta at 10 uM
[2] = biological target: T1, Epithelial discoidin domain-containing receptor 1 (Homo sapiens, UniProt Q08345); assay: Inhibition of DDR1 at 10 uM
[3] = biological target: Cyclin-G-associated kinase (Homo sapiens) (UniProt O14976); assay: Inhibition of GAK at 10 uM
[4] = biological target: Mitogen-activated protein kinase 8 (Homo sapiens) (UniProt P45983); assay: Inhibition of JNK1 at 10 uM
[5] = biological target: Mitogen-activated protein kinase 9 (Homo sapiens) (UniProt P45984); assay: Inhibition of JNK2 at 10 uM
[6] = biological target: Serine/threonine-protein kinase NLK (Homo sapiens) (UniProt Q9UBE8); assay: Inhibition of NLK at 10 uM
[7] = biological target: T2, Ribosomal protein S6 kinase alpha-3 (Homo sapiens, UniProt P51812); assay: Inhibition of RSK2 at 10 uM
[8] = biological target: Ribosomal protein S6 kinase alpha-4 (Homo sapiens, UniProt O75676); assay: Inhibition of RSK4 at 10 uM
[9] = biological target: T3, Atypical kinase COQ8A, mitochondrial (Homo sapiens, UniProt Q8NI60); details: 10 uM
Target sequence in this assay (Q8NI60 163-647 limits assumed): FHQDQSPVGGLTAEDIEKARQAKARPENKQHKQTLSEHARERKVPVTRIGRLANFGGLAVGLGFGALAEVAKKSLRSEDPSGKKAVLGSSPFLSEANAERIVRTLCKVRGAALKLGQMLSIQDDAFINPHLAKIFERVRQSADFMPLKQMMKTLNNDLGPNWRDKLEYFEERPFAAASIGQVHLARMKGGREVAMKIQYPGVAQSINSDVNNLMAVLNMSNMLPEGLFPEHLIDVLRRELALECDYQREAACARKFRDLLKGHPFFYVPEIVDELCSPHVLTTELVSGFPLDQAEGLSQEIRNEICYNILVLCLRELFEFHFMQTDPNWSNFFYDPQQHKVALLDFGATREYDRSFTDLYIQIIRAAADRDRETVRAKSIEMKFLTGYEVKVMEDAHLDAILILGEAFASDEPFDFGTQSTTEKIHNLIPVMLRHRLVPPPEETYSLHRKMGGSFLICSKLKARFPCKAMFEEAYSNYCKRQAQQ
Description: Inhibition of ADCK3 at 10 uM

[10] = biological target: Casein kinase I isoform epsilon (Homo sapiens, UniProt P49674); details: 10 uM
Description: Inhibition of CSNK1epsilon at 10 uM

[11] = biological target: Mitogen-activated protein kinase 10 (Homo sapiens, UniProt P53779); details: 10 uM
Description: Inhibition of JNK3 at 10 uM

[12] = biological target: Serine/threonine-protein kinase 36 (Homo sapiens) (UniProt Q9NRP7); details: 10 uM
Description: Inhibition of STK36 at 10 uM

[13] = biological target: T3, Atypical kinase COQ8A, mitochondrial; assay: Inhibition of ADCK3
[14] = biological target: T1, Epithelial discoidin domain-containing receptor 1; assay: Inhibition of DDR1
[15] = biological target: Cyclin-G-associated kinase (Homo sapiens, UniProt O14976); assay: Inhibition of GAK
[16] = biological target: T2, Ribosomal protein S6 kinase alpha-3; assay: Inhibition of RSK2
[17] = biological target: Serine/threonine-protein kinase 36 (Homo sapiens, UniProt Q9NRP7); assay: Inhibition of STK36
[18] = Aqueous solubility of the compound in phosphate buffer at pH 6.5; assay type: physicochemical
[19] = Permeability of the compound from apical to basolateral side of human Caco2 cells at 10 uM after 21 days; assay type: ADME, cell-based; details: Caco-2, read-out: permeability
[20] = Permeability of the compound from basolateral to apical side of human Caco2 cells at 10 uM after 21 days; assay type: ADME, cell-based; details: Caco-2, read-out: permeability
[21] = system: Rattus norvegicus; assay: Inhibition of LPS-induced TNFalpha production in rat serum at 3 mg/kg, po administered 30 mins before LPS challenge measured after […] by ELISA; assay type: functional
[22] = system: Rattus norvegicus; assay: Inhibition of LPS-induced IL-6 production in po dosed rat serum administered 30 mins before LPS challenge measured after […] by ELISA; assay type: functional, organism-based
[23] = system: Rattus norvegicus; assay: Inhibition of TNF-alpha-induced IL-6 production in po dosed rat plasma administered 30 mins before TNFalpha challenge measured after 2 hrs by ELISA; assay type: functional, organism-based
[24] = system: Rattus norvegicus; assay: Analgesic activity in po dosed rat inflammatory yeast hyperalgesia model assessed as increase in tolerance to pressure; assay type: functional, organism-based
[25] = Plasma protein binding in Hanover-Wistar rat by untrafiltration method; assay type: ADME, cell-free; details: read-out: PPB (converted)
[26] = Plasma protein binding in cynomolgus monkey by untrafiltration method; assay type: ADME, cell-free, Macaca fascicularis; details: read-out: PPB (converted)
[27] = Tmax in Hanover-Wistar rat at 5 mg/kg, po; assay type: ADME, organism-based; parameters: dose 5 mg/kg, route oral; details: in vivo
[28] = Cmax in Hanover-Wistar rat at 5 mg/kg, po; assay type: ADME, organism-based; parameters: dose 5 mg/kg, route oral; details: in vivo
[29] = Half life in Hanover-Wistar rat at 5 mg/kg, po; assay type: ADME, organism-based; parameters: dose 5 mg/kg, route oral; details: in vivo
[30] = AUC (0 to last) in Hanover-Wistar rat at 5 mg/kg, po after 24 hrs; assay type: ADME, organism-based; parameters: dose 5 mg/kg, route oral, time 0 - last; details: plasma
[31] = Oral bioavailability in Hanover-Wistar rat at 5 mg/kg; assay type: ADME, organism-based; details: in vivo
[32] = Clearance in Hanover-Wistar rat at 5 mg/kg, iv; assay type: ADME, organism-based; parameters: dose 5 mg/kg, route intravenous; details: in vivo
[33] = Volume of distribution at steady state in Hanover-Wistar rat at 5 mg/kg, iv; assay type: ADME, organism-based; parameters: dose 5 mg/kg, route intravenous; details: in vivo, read-out: Vdss
[34] = Tmax in cynomolgus monkey at 5 mg/kg, po; assay type: ADME, organism-based, Macaca fascicularis; parameters: dose 5 mg/kg, route oral; details: in vivo
[35] = Cmax in cynomolgus monkey at 5 mg/kg, po; assay type: ADME, organism-based, Macaca fascicularis; parameters: dose 5 mg/kg, route oral; details: in vivo
[36] = Half life in cynomolgus monkey at 5 mg/kg, po; assay type: ADME, organism-based, Macaca fascicularis; parameters: dose 5 mg/kg, route oral; details: in vivo
[37] = AUC (0 to last) in cynomolgus monkey at 5 mg/kg, po after 72 hrs; assay type: ADME, organism-based, Macaca fascicularis; parameters: dose 5 mg/kg, route oral, time 0 - last; details: plasma
[38] = Oral bioavailability in cynomolgus monkey at 5 mg/kg; assay type: ADME, organism-based, Macaca fascicularis; details: in vivo
[39] = Clearance in cynomolgus monkey at 5 mg/kg, iv; assay type: ADME, organism-based, Macaca fascicularis; parameters: dose 5 mg/kg, route intravenous; details: in vivo
[40] = Volume of distribution at steady state in cynomolgus monkey at 5 mg/kg, iv; assay type: ADME, organism-based, Macaca fascicularis; parameters: dose 5 mg/kg, route intravenous; details: in vivo, read-out: Vdss
[41] = Tmax in Beagle dog at 5 mg/kg, po; assay type: ADME, organism-based, Canis lupus familiaris; parameters: dose 5 mg/kg, route oral; details: in vivo
[42] = Cmax in Beagle dog at 5 mg/kg, po; assay type: ADME, organism-based, Canis lupus familiaris; parameters: dose 5 mg/kg, route oral; details: in vivo
[43] = Half life in Beagle dog at 5 mg/kg, po; assay type: ADME, organism-based, Canis lupus familiaris; parameters: dose 5 mg/kg, route oral; details: in vivo
[44] = AUC (0 to last) in Beagle dog at 5 mg/kg, po; assay type: ADME, organism-based, Canis lupus familiaris; parameters: dose 5 mg/kg, route oral, time 0 - last; details: plasma
[45] = Oral bioavailability in Beagle dog at 5 mg/kg; assay type: ADME, organism-based, Canis lupus familiaris; details: in vivo
[46] = Clearance in Beagle dog at 5 mg/kg, iv; assay type: ADME, organism-based, Canis lupus familiaris; parameters: dose 5 mg/kg, route intravenous; details: in vivo
[47] = Volume of distribution at steady state in Beagle dog at 5 mg/kg, iv; assay type: ADME, organism-based, Canis lupus familiaris; parameters: dose 5 mg/kg, route intravenous; details: in vivo, read-out: Vdss
[48] = biological target: Cytochrome P450 1A2 (Homo sapiens, UniProt P05177); assay: Inhibition of human CYP1A2; assay type: ADME
[49] = biological target: Cytochrome P450 2C9 (Homo sapiens, UniProt P11712); assay: Inhibition of human CYP2C9; assay type: ADME
[50] = biological target: Cytochrome P450 2C19 (Homo sapiens, UniProt P33261); assay: Inhibition of human CYP2C19; assay type: ADME
[51] = biological target: Cytochrome P450 2D6 (Homo sapiens, UniProt P10635); assay: Inhibition of human CYP2D6; assay type: ADME
[52] = biological target: Cytochrome P450 3A4 (Homo sapiens, UniProt P08684); assay: Inhibition of human CYP3A4; assay type: ADME

T2 sequence (P51812 whole entry): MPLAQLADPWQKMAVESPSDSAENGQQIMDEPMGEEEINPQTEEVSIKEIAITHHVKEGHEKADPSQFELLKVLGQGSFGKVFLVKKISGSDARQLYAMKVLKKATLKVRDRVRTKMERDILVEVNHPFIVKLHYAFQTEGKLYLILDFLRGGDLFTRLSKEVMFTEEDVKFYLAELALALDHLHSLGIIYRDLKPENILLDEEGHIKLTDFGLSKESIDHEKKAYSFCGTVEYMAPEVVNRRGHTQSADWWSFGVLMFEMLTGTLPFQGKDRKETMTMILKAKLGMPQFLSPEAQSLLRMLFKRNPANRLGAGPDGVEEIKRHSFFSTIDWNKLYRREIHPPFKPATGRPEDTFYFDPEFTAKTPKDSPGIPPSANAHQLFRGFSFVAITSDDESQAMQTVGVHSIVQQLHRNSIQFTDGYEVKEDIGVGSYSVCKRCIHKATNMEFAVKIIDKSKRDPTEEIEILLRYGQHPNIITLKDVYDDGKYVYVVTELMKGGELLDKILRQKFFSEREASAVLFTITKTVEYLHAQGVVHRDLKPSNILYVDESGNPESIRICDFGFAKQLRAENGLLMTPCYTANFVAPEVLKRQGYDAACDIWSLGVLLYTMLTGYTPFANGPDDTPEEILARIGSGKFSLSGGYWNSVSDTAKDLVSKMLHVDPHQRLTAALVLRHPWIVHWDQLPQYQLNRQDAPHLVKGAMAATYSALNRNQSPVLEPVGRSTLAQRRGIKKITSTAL
T1 sequence (Q08345 whole entry, the tested form may be a part): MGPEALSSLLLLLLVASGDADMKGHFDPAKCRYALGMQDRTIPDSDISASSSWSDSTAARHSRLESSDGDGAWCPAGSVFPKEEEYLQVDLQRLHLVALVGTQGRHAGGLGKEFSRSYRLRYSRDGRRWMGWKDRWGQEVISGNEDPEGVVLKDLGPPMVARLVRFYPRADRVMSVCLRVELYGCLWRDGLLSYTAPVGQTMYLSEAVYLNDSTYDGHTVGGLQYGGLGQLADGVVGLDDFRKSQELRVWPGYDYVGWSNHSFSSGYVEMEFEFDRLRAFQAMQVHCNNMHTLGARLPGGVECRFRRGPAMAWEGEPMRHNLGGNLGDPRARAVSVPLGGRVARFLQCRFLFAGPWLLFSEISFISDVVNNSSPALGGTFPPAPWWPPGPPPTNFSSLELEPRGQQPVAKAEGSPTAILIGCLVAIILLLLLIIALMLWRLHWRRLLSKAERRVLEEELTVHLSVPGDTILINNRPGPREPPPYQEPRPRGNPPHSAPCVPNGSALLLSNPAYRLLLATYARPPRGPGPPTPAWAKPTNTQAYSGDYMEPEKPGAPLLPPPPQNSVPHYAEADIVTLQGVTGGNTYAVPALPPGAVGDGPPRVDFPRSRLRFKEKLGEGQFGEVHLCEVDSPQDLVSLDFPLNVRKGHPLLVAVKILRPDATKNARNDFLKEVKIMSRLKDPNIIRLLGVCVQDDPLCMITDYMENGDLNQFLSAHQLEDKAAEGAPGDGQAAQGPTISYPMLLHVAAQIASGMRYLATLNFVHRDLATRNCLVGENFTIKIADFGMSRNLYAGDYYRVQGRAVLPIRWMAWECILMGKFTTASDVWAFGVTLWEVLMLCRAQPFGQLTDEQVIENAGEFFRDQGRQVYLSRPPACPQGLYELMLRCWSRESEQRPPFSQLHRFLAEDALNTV
Chain of Mitogen-activated protein kinase 10 (P53779 whole entry): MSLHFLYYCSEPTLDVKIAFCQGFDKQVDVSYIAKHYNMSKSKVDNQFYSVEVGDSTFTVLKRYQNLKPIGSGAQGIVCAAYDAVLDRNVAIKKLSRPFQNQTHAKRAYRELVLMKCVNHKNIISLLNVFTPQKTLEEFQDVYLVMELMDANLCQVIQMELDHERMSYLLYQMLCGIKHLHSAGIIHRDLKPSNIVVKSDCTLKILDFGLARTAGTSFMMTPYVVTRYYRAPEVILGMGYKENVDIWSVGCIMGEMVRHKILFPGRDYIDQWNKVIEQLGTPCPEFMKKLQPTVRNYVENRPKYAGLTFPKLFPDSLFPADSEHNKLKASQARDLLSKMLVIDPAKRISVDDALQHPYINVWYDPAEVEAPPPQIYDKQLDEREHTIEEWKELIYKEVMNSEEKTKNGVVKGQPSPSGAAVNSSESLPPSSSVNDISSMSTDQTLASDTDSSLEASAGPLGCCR
Chain of Ribosomal protein S6 kinase alpha-4 (O75676 whole entry, looked up): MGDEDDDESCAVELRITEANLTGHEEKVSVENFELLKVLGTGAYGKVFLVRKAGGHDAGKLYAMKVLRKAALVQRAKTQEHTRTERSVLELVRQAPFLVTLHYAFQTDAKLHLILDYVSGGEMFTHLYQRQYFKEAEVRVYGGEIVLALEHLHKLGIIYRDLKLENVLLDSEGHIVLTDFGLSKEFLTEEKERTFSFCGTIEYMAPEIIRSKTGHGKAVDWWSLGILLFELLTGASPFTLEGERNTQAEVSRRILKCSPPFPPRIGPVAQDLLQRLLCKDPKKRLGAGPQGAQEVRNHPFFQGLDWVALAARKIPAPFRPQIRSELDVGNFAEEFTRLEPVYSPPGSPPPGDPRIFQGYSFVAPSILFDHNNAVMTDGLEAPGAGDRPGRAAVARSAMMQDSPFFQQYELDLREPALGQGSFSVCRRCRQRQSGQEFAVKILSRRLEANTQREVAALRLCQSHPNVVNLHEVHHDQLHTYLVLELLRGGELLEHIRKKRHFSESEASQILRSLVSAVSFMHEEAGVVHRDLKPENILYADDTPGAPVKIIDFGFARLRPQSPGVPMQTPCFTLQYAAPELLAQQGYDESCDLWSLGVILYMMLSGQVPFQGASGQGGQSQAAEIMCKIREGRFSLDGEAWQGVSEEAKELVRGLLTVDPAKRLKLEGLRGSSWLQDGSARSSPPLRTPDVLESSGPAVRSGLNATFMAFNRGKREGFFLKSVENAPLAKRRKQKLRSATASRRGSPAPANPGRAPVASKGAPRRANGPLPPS
Chain of Cyclin-G-associated kinase (Homo sapiens) (O14976 whole entry): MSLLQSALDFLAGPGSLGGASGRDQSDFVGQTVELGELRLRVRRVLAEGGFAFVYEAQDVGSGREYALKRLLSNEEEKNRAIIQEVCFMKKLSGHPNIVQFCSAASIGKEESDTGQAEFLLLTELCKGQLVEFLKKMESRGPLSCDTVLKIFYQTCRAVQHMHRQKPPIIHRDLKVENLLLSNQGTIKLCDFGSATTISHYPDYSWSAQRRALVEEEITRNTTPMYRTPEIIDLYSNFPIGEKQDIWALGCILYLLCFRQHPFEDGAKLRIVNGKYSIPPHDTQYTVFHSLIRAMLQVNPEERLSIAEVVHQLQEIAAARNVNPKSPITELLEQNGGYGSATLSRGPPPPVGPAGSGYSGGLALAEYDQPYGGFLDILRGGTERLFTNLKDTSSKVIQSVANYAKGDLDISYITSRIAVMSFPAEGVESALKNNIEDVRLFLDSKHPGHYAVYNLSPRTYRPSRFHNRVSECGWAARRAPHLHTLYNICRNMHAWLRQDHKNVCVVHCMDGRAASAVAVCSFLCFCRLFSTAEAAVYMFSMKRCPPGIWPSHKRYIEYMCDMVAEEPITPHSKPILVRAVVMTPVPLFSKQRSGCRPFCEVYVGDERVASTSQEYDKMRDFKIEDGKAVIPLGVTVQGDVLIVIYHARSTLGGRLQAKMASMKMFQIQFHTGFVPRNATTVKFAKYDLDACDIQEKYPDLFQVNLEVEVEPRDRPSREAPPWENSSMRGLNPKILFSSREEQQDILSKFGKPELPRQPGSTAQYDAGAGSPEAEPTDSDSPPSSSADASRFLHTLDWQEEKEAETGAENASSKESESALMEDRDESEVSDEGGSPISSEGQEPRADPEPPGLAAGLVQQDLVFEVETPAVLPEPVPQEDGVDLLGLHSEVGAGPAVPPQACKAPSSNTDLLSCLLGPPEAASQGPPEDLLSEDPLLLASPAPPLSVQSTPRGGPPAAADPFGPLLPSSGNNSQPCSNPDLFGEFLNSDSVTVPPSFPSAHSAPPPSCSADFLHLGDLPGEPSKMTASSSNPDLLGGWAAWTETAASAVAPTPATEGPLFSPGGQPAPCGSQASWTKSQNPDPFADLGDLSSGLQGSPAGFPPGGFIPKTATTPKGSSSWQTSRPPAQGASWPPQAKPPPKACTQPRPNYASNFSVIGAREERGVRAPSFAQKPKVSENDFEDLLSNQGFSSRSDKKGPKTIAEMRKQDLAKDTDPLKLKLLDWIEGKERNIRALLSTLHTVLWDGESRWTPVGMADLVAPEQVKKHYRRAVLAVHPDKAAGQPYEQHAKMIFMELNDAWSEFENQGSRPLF
Chain of Mitogen-activated protein kinase 11 (Q15759 whole entry, the tested form may be a part): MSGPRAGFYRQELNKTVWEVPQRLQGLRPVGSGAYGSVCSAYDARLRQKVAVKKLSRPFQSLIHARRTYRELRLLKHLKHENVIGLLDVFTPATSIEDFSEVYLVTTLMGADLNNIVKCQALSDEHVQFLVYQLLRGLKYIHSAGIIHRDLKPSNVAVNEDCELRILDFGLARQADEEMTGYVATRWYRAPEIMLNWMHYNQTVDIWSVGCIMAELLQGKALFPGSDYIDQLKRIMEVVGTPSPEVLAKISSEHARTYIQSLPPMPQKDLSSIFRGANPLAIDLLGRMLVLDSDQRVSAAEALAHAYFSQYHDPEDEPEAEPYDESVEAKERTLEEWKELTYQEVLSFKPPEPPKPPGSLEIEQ

In the case of `Cn1c(=O)c(Oc2ccc(F)cc2F)cc2cnc(NC3CCOCC3)nc21`, the inhibition [1] is reported as over 85%, the inhibition [2] is reported as over 85% and the inhibition [3] is reported as over 85%. It also gave an inhibition [4] of over 85%, an inhibition [5] of over 85% and an inhibition [6] of over 85%. It also gave an inhibition [7] of over 85%, an inhibition [8] of over 85% and an inhibition [9] of over 85%. For the same compound, the inhibition [10] was over 85%, the inhibition [11] was over 85% and the inhibition [12] was over 85%.
In the case of `Cn1c(=O)c(Oc2ccc(F)cc2F)cc2cnc(NC(CCO)CCO)nc21` [PAMAPIMOD], the inhibition [1] is reported as over 85%, the inhibition [2] is reported as over 85% and the inhibition [3] is reported as over 85%. It also gave an inhibition [4] of over 85%, an inhibition [5] of over 85% and an inhibition [6] of over 85%. It also gave an inhibition [7] of over 85%, an inhibition [8] of over 85% and a Kd [13] of over 1000 nM. The Kd [14] was over 1000 nM, the Kd [15] was over 1000 nM and the Kd [16] was 300 nM. For the same compound, the Kd [17] was over 1000 nM, the solubility [18] was 170 µg/mL (≈ 418 µM) and the Papp A→B at 10 µM [19] was 2.74 ×10⁻⁶ cm/s. It also gave a Papp B→A at 10 µM [20] of 22.6 ×10⁻⁶ cm/s, an inhibition in vivo at 3 mg/kg [21] of 77% and an EC50 [22] of 50 nM. The ED50 ([22]; po) was 0.1 mg/kg, the EC50 [23] was 270 nM and the ED50 ([23]; po) was 1.1 mg/kg. For the same compound, the Activity [24] was “Dose-dependent effect”, the EC50 [24] was 4300 nM and the ED50 ([24]; po) was 20.4 mg/kg. For the same compound, the fraction unbound [25] was 0.171, the fraction unbound [26] was 0.146 and the Tmax [27] was 0.5 h. The Cmax [28] was 1340 ng/mL, the half-life [29] was 4.04 h and the AUC(0-t) at 24 h [30] was 3130 ng·h/mL. The bioavailability [31] was 80.1%, the clearance [32] was 21 mL/min/kg and the Vd [33] was 3.56 L/kg. For the same compound, the Tmax [34] was 1.5 h, the Cmax [35] was 1860 ng/mL and the half-life [36] was 13.8 h. For the same compound, the AUC(0-t) at 72 h [37] was 9410 ng·h/mL, the bioavailability [38] was over 100% and the clearance [39] was 10.8 mL/min/kg. It also gave a Vd [40] of 20.6 L/kg, a Tmax [41] of 0.67 h and a Cmax [42] of 1380 ng/mL. The half-life [43] was 9.18 h, the AUC(0-t) [44] was 5220 ng·h/mL and the bioavailability [45] was 78.2%. It also gave a clearance [46] of 12.5 mL/min/kg, a Vd [47] of 12.7 L/kg and an IC50 [48] of over 29000 nM. For the same compound, the IC50 [49] was over 29000 nM, the IC50 [50] was over 29000 nM and the IC50 [51] was over 29000 nM. It also gave an IC50 [52] of over 29000 nM, an inhibition [9] of over 85% and an inhibition [10] of over 85%. It also gave an inhibition [11] of over 85% and an inhibition [12] of over 85%.
